Read-outs that look alike come from different tables or passages of the source.
Assays:
[1] = target: T1, human RORγ (Homo sapiens, UniProt P51449); assay: In vitro assay of inhibitory effect against RORγ transcriptional activity (GAL4-hRORγ LBD luciferase reporter gene assay in CHO cells); type: cell-based; details: for hRORγ luciferase activity, %-of-control: value in parentheses beside the > EC50 bound, vehicle-control 0.2% DMSO alone = 100%
T1 construct: human RORγ, from Ser253 to Lys518; expressed in transfected cells; host or cells: CHO cells (Chinese hamster ovary), transient co-transfection with pG5-Luc
T1 sequence (P51449 253-518): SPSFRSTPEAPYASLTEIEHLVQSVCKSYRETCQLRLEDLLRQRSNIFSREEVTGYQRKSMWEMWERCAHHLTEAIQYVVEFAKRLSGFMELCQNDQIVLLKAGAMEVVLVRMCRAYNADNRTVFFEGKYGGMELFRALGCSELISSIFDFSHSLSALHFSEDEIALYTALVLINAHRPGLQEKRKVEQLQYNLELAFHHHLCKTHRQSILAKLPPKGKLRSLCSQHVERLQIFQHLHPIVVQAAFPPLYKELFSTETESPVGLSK
Summary of the method: (§1)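 CHO cells, transient GAL4-RORγ LBD + pG5-Luc; cmpd 8 conc, 0.2% DMSO, 2 d, 37 °C, 5% CO2. SteadyLite luminescence, %-of-DMSO control (100%), EC50 by curve fit. Cytotoxic concentrations (resazurin) excluded.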

[2] = target: T2, mouse RORγ (Mus musculus, UniProt P51450); assay: In vitro assay of inhibitory effect against RORγ transcriptional activity (GAL4-mRORγ LBD luciferase reporter gene assay in CHO cells); type: cell-based; details: for mRORγ luciferase activity, %-of-control: value in parentheses beside the > EC50 bound, vehicle-control 0.2% DMSO alone = 100%
T2 construct: mouse RORγ, from Ile251 to Lys516; expressed in transfected cells; host or cells: CHO cells (Chinese hamster ovary), transient co-transfection with pG5-Luc
T2 sequence (P51450 251-516): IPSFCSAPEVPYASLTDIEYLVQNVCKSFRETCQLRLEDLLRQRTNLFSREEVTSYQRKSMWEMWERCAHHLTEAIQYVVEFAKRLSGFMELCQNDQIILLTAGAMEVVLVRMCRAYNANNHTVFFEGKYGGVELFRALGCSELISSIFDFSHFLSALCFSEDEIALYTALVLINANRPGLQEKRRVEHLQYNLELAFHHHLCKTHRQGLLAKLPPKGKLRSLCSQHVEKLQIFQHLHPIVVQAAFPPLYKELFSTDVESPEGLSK
Summary of the method: as §1

[3] = GAL4-hRORγ LBD luciferase reporter, CHO cells, read-out: LUC EC50 hRORγ
[4] = GAL4-mRORγ LBD luciferase reporter, CHO cells, read-out: LUC EC50 mRORγ
[5] = GAL4-hRORγ LBD / pG5-Luc in CHO cells, 2 days incubation
[6] = GAL4-mRORγ LBD / pG5-Luc in CHO cells, 2 days incubation

Compound	EC50 [1, 3]	EC50 [2, 4]	EC50 [1, 5]	hRORγ luciferase activity, %-of-control [1]	EC50 [2, 6]	mRORγ luciferase activity, %-of-control [2]
COC(=O)[C@H]1C[C@H](N2C=C([C@H]3C[C@@H](CO)C3)[C@](C)(c3ccc(CCC(C)(C)C)c(Cl)c3)NC2=O)C1 (single isomer, unassigned) [Example 312]	0.248 µM	0.538 µM	–	–	–	–
COCCC1=CN(C23CCC(C(=O)O)(C2)C3)C(=O)N[C@@]1(C)c1ccc([C@H]2C[C@@H](C(C)(C)C)C2)c(Cl)c1 (single isomer, unassigned) [Example 344]	0.013 µM	0.012 µM	–	–	–	–
COCC(C)C1=CN(C23CCC(C(=O)O)(C2)C3)C(=O)N[C@@]1(C)c1ccc(CCC(C)(C)C)c(Cl)c1 (single isomer, unassigned) [Example 351]	0.004 µM	0.011 µM	–	–	–	–
COCC(C)C1=CN(C23CCC(C(=O)O)(C2)C3)C(=O)N[C@@]1(C)c1ccc(CCC(C)(C)C)c(Cl)c1 (single isomer, unassigned) [Example 352]	0.063 µM	0.051 µM	–	–	–	–
CC(C)(C)CCc1ccc([C@@]2(C)NC(=O)N(CCCC(=O)O)C=C2C2CCCCC2)cc1Cl [Example 31]	–	–	3.07 µM	–	> 3.2 µM	(52%)
CC(C)(C)CCc1ccc([C@]2(C)NC(=O)N(CCCC(=O)O)C=C2C2CCCCC2)cc1Cl [Example 32]	–	–	0.026 µM	–	0.046 µM	–
CC(C)CCC1=CN(CCCC(=O)O)C(=O)N[C@]1(C)c1ccc(CCC(C)(C)C)c(Cl)c1 [Example 43]	–	–	0.564 µM	–	0.835 µM	–
CC(C)CCC1=CN(CCCC(=O)O)C(=O)N[C@@]1(C)c1ccc(CCC(C)(C)C)c(Cl)c1 [Example 44]	–	–	0.051 µM	–	0.09 µM	–
CC(C)(C)CCc1ccc([C@@]2(C)NC(=O)N(CCCC(=O)O)C=C2C2(C)CC2)cc1Cl [Example 51]	–	–	1.18 µM	–	1.08 µM	–
CC(C)(C)CCc1ccc([C@]2(C)NC(=O)N(CCCC(=O)O)C=C2C2(C)CC2)cc1Cl [Example 52]	–	–	0.01 µM	–	0.015 µM	–
CC(C)(C)CCc1ccc([C@@]2(C)NC(=O)N(CCCC(=O)O)C=C2C2CC2)cc1Cl [Example 56]	–	–	5.16 µM	–	4.29 µM	–
CC(C)(C)CCc1ccc([C@]2(C)NC(=O)N(CCCC(=O)O)C=C2C2CC2)cc1Cl [Example 57]	–	–	0.031 µM	–	0.022 µM	–
CC(C)(C)CCc1ccc([C@@]2(C)NC(=O)N(CCCC(=O)O)C=C2C2CCC2)cc1Cl [Example 58]	–	–	1.25 µM	–	1.65 µM	–
CC(C)(C)CCc1ccc([C@]2(C)NC(=O)N(CCCC(=O)O)C=C2C2CCC2)cc1Cl [Example 59]	–	–	0.012 µM	–	0.02 µM	–
CC1=CN(CCCC(=O)O)C(=O)N[C@]1(C)c1ccc(CCC(C)(C)C)c(Cl)c1 [Example 60]	–	–	15.3 µM	–	12.4 µM	–
CC1=CN(CCCC(=O)O)C(=O)N[C@@]1(C)c1ccc(CCC(C)(C)C)c(Cl)c1 [Example 61]	–	–	0.143 µM	–	0.046 µM	–
CC(C)C1=CN([C@H]2CC[C@@H](C(=O)O)CC2)C(=O)N[C@]1(C)c1ccc(CCC(C)(C)C)c(Cl)c1 [Example 66]	–	–	3.61 µM	–	2.68 µM	–
CC(C)C1=CN([C@H]2CC[C@@H](C(=O)O)CC2)C(=O)N[C@@]1(C)c1ccc(CCC(C)(C)C)c(Cl)c1 [Example 67]	–	–	0.023 µM	–	0.017 µM	–
CCC1=CN(CCCC(=O)O)C(=O)N[C@]1(C)c1ccc(CCC(C)(C)C)c(Cl)c1 [Example 68]	–	–	1.24 µM	–	1.76 µM	–
CCC1=CN(CCCC(=O)O)C(=O)N[C@@]1(C)c1ccc(CCC(C)(C)C)c(Cl)c1 [Example 69]	–	–	0.02 µM	–	0.017 µM	–

Continued, values first:

EC50 [1, 3]	EC50 [2, 4]	EC50 [1, 5]	hRORγ luciferase activity, %-of-control [1]	EC50 [2, 6]	mRORγ luciferase activity, %-of-control [2]	Compound
–	–	> 8 µM	(69%)	> 8 µM	(59%)	CC(C)C1=CN(CCCC(=O)O)C(=O)N[C@]1(C)c1ccc(CCC(C)(C)C)c(Cl)c1 [Example 14]
–	–	0.012 µM	–	0.012 µM	–	CC(C)C1=CN(CCCC(=O)O)C(=O)N[C@@]1(C)c1ccc(CCC(C)(C)C)c(Cl)c1 [Example 15]
–	–	> 3.2 µM	(51%)	> 3.2 µM	(52%)	CC(C)C1=CN(CC(C)(C)CC(=O)O)C(=O)N[C@]1(C)c1ccc(CCC(C)(C)C)c(Cl)c1 [Example 35]
–	–	0.021 µM	–	0.024 µM	–	CC(C)C1=CN(CC(C)(C)CC(=O)O)C(=O)N[C@@]1(C)c1ccc(CCC(C)(C)C)c(Cl)c1 [Example 36]
–	–	0.154 µM	–	0.282 µM	–	CC(C)CC1=CN(CCCC(=O)O)C(=O)N[C@]1(C)c1ccc(CCC(C)(C)C)c(Cl)c1 [Example 37]
–	–	0.011 µM	–	0.015 µM	–	CC(C)CC1=CN(CCCC(=O)O)C(=O)N[C@@]1(C)c1ccc(CCC(C)(C)C)c(Cl)c1 [Example 38]
–	–	> 8 µM	(59%)	> 8 µM	(61%)	CC(C)C1=CN([C@H]2C[C@H](C(=O)O)C2)C(=O)N[C@]1(C)c1ccc(CCC(C)(C)C)c(Cl)c1 [Example 41]
–	–	0.031 µM	–	0.028 µM	–	CC(C)C1=CN([C@H]2C[C@H](C(=O)O)C2)C(=O)N[C@@]1(C)c1ccc(CCC(C)(C)C)c(Cl)c1 [Example 42]
–	–	7.33 µM	–	7.51 µM	–	CC(C)C1=CN([C@H]2C[C@@H](C(=O)O)C2)C(=O)N[C@]1(C)c1ccc(CCC(C)(C)C)c(Cl)c1 [Example 45]
–	–	0.017 µM	–	0.016 µM	–	CC(C)C1=CN([C@H]2C[C@@H](C(=O)O)C2)C(=O)N[C@@]1(C)c1ccc(CCC(C)(C)C)c(Cl)c1 [Example 46]
–	–	1.1 µM	–	0.764 µM	–	CC(C)C1=CN(CCCCC(=O)O)C(=O)N[C@]1(C)c1ccc(CCC(C)(C)C)c(Cl)c1 [Example 47]
–	–	0.012 µM	–	0.016 µM	–	CC(C)C1=CN(CCCCC(=O)O)C(=O)N[C@@]1(C)c1ccc(CCC(C)(C)C)c(Cl)c1 [Example 48]
–	–	0.983 µM	–	0.832 µM	–	CC(C)C1=CN(CCc2ccc(C(=O)O)cc2)C(=O)N[C@]1(C)c1ccc(CCC(C)(C)C)c(Cl)c1 [Example 49]
–	–	0.007 µM	–	0.013 µM	–	CC(C)C1=CN(CCc2ccc(C(=O)O)cc2)C(=O)N[C@@]1(C)c1ccc(CCC(C)(C)C)c(Cl)c1 [Example 50]
–	–	> 8 µM	(92%)	> 8 µM	(81%)	CC(C)C1=CN(CCC(C)(C)C(=O)O)C(=O)N[C@]1(C)c1ccc(CCC(C)(C)C)c(Cl)c1 [Example 54]
–	–	0.022 µM	–	0.026 µM	–	CC(C)C1=CN(CCC(C)(C)C(=O)O)C(=O)N[C@@]1(C)c1ccc(CCC(C)(C)C)c(Cl)c1 [Example 55]
–	–	0.505 µM	–	0.758 µM	–	CC(C)C1=CN(CCC2(C(=O)O)CC2)C(=O)N[C@]1(C)c1ccc(CCC(C)(C)C)c(Cl)c1 [Example 71]
–	–	0.013 µM	–	0.017 µM	–	CC(C)C1=CN(CCC2(C(=O)O)CC2)C(=O)N[C@@]1(C)c1ccc(CCC(C)(C)C)c(Cl)c1 [Example 72]
–	–	0.803 µM	–	0.657 µM	–	CC(C)C1=CN(C(C)CCC(=O)O)C(=O)NC1(C)c1ccc(CCC(C)(C)C)c(Cl)c1 (centres unmarked) [Example 73]
–	–	0.986 µM	–	1.1 µM	–	CC(C)C1=CN(CCCC(C)(C)C(=O)O)C(=O)N[C@]1(C)c1ccc(CCC(C)(C)C)c(Cl)c1 [Example 74]

Reference: patent publication US10196363B2, “Dihydropyrimidin-2-one compounds and medical use thereof” (JAPAN TOBACCO INC., priority 2014, dated 2019)
